Here are results for 1 compound from publication PMC5218480 (PLoS ONE, 2017).

This assay relates to MV-4-11 cells. Nature of the assay: Gene expression microarray analysis (Affymetrix PrimeView) and GSEA. The format is cell-based, human. Further details: RFU PODN (11730768_x_at) / Fold change /veh PODN (11730768_x_at) / RFU LINC00158 (11744669_a_at) / Fold change /veh LINC00158 (11744669_a_at) / RFU DUSP10 (11751237_a_at) / Fold change /veh DUSP10 (11751237_a_at) / RFU ID3 (11757404_x_at) / Fold change /veh ID3 (11757404_x_at) / RFU PLEKHG5 (11737974_s_at) / Fold change /veh PLEKHG5 (11737974_s_at) / RFU LRRC4B (11730491_at) / Fold change /veh LRRC4B (11730491_at) / RFU GIMAP4 (11747438_a_at) / Fold change /veh GIMAP4 (11747438_a_at) / RFU KRT8 (11758183_x_at) / Fold change /veh KRT8 (11758183_x_at) / RFU CNN1 (11734310_a_at) / Fold change /veh CNN1 (11734310_a_at) / RFU VPS37D (11726825_at) / Fold change /veh VPS37D (11726825_at) / RFU C10orf10 (11716522_x_at) / Fold change /veh C10orf10 (11716522_x_at) / RFU KIR2DL2 /// KIR2DL4 /// KIR2DL5A /// KIR2DL5B /// KIR2DS1 /// KIR2DS2 /// KIR2DS3 /// KIR2DS4 /// KIR3DL3 /// KIR3DL3 /// KIR3DS1 (11738374_at) / Fold change /veh KIR2DL2 /// KIR2DL4 /// KIR2DL5A /// KIR2DL5B /// KIR2DS1 /// KIR2DS2 /// KIR2DS3 /// KIR2DS4 /// KIR3DL3 /// KIR3DL3 /// KIR3DS1 (11738374_at) / RFU C1QL1 (11718748_at) / Fold change /veh C1QL1 (11718748_at) / RFU TMPRSS4 (11747572_a_at) / Fold change /veh TMPRSS4 (11747572_a_at) / RFU HAMP (11756126_x_at) / Fold change /veh HAMP (11756126_x_at) / RFU RNFT2 (11725882_a_at) / Fold change /veh RNFT2 (11725882_a_at) / RFU NR4A2 (11747474_a_at) / Fold change /veh NR4A2 (11747474_a_at) / RFU ABCC12 (11746883_a_at) / Fold change /veh ABCC12 (11746883_a_at) / RFU TMEM136 (11760407_x_at) / Fold change /veh TMEM136 (11760407_x_at) / RFU CLDN22 /// WWC2 (11732394_at) / Fold change /veh CLDN22 /// WWC2 (11732394_at) / RFU HLA-DPB1 (11760878_x_at) / Fold change /veh HLA-DPB1 (11760878_x_at) / RFU SPINT1 (11716480_a_at) / Fold change /veh SPINT1 (11716480_a_at) / RFU GAP43 (11754022_s_at) / Fold change /veh GAP43 (11754022_s_at) / RFU A4GNT (11735810_at) / Fold change /veh A4GNT (11735810_at) / RFU PRB3 (11715151_x_at) / Fold change /veh PRB3 (11715151_x_at) / RFU TUBB4B (11761932_at) / Fold change /veh TUBB4B (11761932_at) / RFU CAPN14 (11732068_a_at) / Fold change /veh CAPN14 (11732068_a_at) / RFU TMCC2 (11721928_a_at) / Fold change /veh TMCC2 (11721928_a_at) / RFU IRGQ (11745062_a_at) / Fold change /veh IRGQ (11745062_a_at) / RFU FAM174B (11720279_a_at) / Fold change /veh FAM174B (11720279_a_at) / RFU TMPRSS4 (11748680_a_at) / Fold change /veh TMPRSS4 (11748680_a_at) / RFU FAM212B (11763350_a_at) / Fold change /veh FAM212B (11763350_a_at) / RFU PLEKHG5 (11743358_a_at) / Fold change /veh PLEKHG5 (11743358_a_at) / RFU ZSCAN30 (11745921_a_at) / Fold change /veh ZSCAN30 (11745921_a_at) / RFU CMKLR1 (11741424_a_at) / Fold change /veh CMKLR1 (11741424_a_at) / RFU LOC101060620 /// MAPK8IP1 (11723275_at) / Fold change /veh LOC101060620 /// MAPK8IP1 (11723275_at) / RFU SPTSSB (11747773_x_at) / Fold change /veh SPTSSB (11747773_x_at) / RFU PRSS12 (11739890_at) / Fold change /veh PRSS12 (11739890_at) / RFU BIN1 (11741810_x_at) / Fold change /veh BIN1 (11741810_x_at) / RFU WNT11 (11732464_a_at) / Fold change /veh WNT11 (11732464_a_at) / RFU C10orf10 (11716521_a_at) / Fold change /veh C10orf10 (11716521_a_at) / RFU C5orf56 (11738089_at) / Fold change /veh C5orf56 (11738089_at) / RFU CYB561 (11721691_x_at) / Fold change /veh CYB561 (11721691_x_at) / RFU ANKRD19P (11752326_a_at) / Fold change /veh ANKRD19P (11752326_a_at) / RFU OR2T12 /// OR2T33 /// OR2T8 (11738714_s_at) / Fold change /veh OR2T12 /// OR2T33 /// OR2T8 (11738714_s_at) / RFU VCAN (11748164_a_at) / Fold change /veh VCAN (11748164_a_at) / RFU JSRP1 (11732532_at) / Fold change /veh JSRP1 (11732532_at) / RFU KRTAP10-11 (11738290_x_at) / Fold change /veh KRTAP10-11 (11738290_x_at) / RFU MYO3A (11730013_a_at) / Fold change /veh MYO3A (11730013_a_at) / RFU EBF3 (11725865_a_at) / Fold change /veh EBF3 (11725865_a_at) / RFU CAMK2N1 (11719241_x_at) / Fold change /veh CAMK2N1 (11719241_x_at) / RFU C5orf56 (11738088_a_at) / Fold change /veh C5orf56 (11738088_a_at) / RFU OLFML3 (11715873_a_at) / Fold change /veh OLFML3 (11715873_a_at) / RFU LOC100653217 /// NTM (11731650_a_at) / Fold change /veh LOC100653217 /// NTM (11731650_a_at) / RFU MAPK11 (11762145_a_at) / Fold change /veh MAPK11 (11762145_a_at) / RFU FIZ1 (11724087_x_at) / Fold change /veh FIZ1 (11724087_x_at) / RFU OASL (11726364_x_at) / Fold change /veh OASL (11726364_x_at) / RFU SOX15 (11748057_x_at) / Fold change /veh SOX15 (11748057_x_at) / RFU CD79A (11719716_a_at) / Fold change /veh CD79A (11719716_a_at) / RFU HIST1H1D (11736915_at) / Fold change /veh HIST1H1D (11736915_at) / RFU CASKIN2 (11723855_a_at) / Fold change /veh CASKIN2 (11723855_a_at) / RFU LOC730098 (11760151_x_at) / Fold change /veh LOC730098 (11760151_x_at) / RFU OR4N2 (11742367_at) / Fold change /veh OR4N2 (11742367_at) / RFU PRRT2 (11749266_a_at) / Fold change /veh PRRT2 (11749266_a_at) / RFU SNX32 (11753110_a_at) / Fold change /veh SNX32 (11753110_a_at) / RFU CDHR5 (11726645_a_at) / Fold change /veh CDHR5 (11726645_a_at) / RFU RCAN1 (11760418_a_at) / Fold change /veh RCAN1 (11760418_a_at) / RFU FAM167A (11723789_a_at) / Fold change /veh FAM167A (11723789_a_at) / RFU FAM26E (11764081_at) / Fold change /veh FAM26E (11764081_at) / RFU ISYNA1 (11749810_s_at) / Fold change /veh ISYNA1 (11749810_s_at) / RFU ACY1 (11761880_at) / Fold change /veh ACY1 (11761880_at) / RFU 11764098_at / Fold change /veh 11764098_at / RFU SAMD14 (11745864_x_at) / Fold change /veh SAMD14 (11745864_x_at) / RFU NPB (11741838_a_at) / Fold change /veh NPB (11741838_a_at) / RFU TMPRSS6 (11731388_a_at) / Fold change /veh TMPRSS6 (11731388_a_at) / RFU KRTAP10-2 (11738614_at) / Fold change /veh KRTAP10-2 (11738614_at) / RFU ARHGAP8 /// PRR5-ARHGAP8 (11727945_x_at) / Fold change /veh ARHGAP8 /// PRR5-ARHGAP8 (11727945_x_at) / RFU KRTAP5-7 /// NADSYN1 (11734609_at) / Fold change /veh KRTAP5-7 /// NADSYN1 (11734609_at) / RFU RASL12 (11751679_a_at) / Fold change /veh RASL12 (11751679_a_at) / RFU CDKN2B (11736163_a_at) / Fold change /veh CDKN2B (11736163_a_at) / RFU PRF1 (11729649_at) / Fold change /veh PRF1 (11729649_at) / RFU, ZNF638 /// ZNF638-IT1 / Fold change vs veh, ZNF638 /// ZNF638-IT1 / RFU, PANK3 / Fold change vs veh, PANK3 / RFU, SH3YL1 / Fold change vs veh, SH3YL1 / RFU, ZEB2 / Fold change vs veh, ZEB2 / RFU, NRIP1 / Fold change vs veh, NRIP1 / RFU, PTTG1IP / Fold change vs veh, PTTG1IP / RFU, CAPN2 / Fold change vs veh, CAPN2 / RFU, MED14 / Fold change vs veh, MED14 / RFU, SNORA58 / Fold change vs veh, SNORA58 / RFU, C1orf63 / Fold change vs veh, C1orf63 / RFU, LRRFIP1 / Fold change vs veh, LRRFIP1 / RFU, NDUFAF7 / Fold change vs veh, NDUFAF7 / RFU, SLC12A2 / Fold change vs veh, SLC12A2 / RFU, IBTK / Fold change vs veh, IBTK / RFU, ESF1 / Fold change vs veh, ESF1 / Fold change vs veh, TMEM50B / RFU, TAOK1 / Fold change vs veh, TAOK1 / RFU, ACBD3 / Fold change vs veh, ACBD3 / RFU, TMA16 / Fold change vs veh, TMA16 / RFU, RWDD3 / Fold change vs veh, RWDD3 / RFU, BCAT1 / Fold change vs veh, BCAT1 / RFU, EDEM3 / Fold change vs veh, EDEM3 / RFU, TMEM33 / Fold change vs veh, TMEM33 / RFU, WDR75 / Fold change vs veh, WDR75 / RFU, AHCTF1 / Fold change vs veh, AHCTF1 / RFU, TFRC / Fold change vs veh, TFRC / RFU, ZDHHC17 / Fold change vs veh, ZDHHC17 / RFU, NOM1 / Fold change vs veh, NOM1 / RFU, ARL8B / Fold change vs veh, ARL8B / RFU, ZBTB11 / Fold change vs veh, ZBTB11 / RFU, TAMM41 / Fold change vs veh, TAMM41 / RFU, KIAA1704 /// LOC100996395 / Fold change vs veh, KIAA1704 /// LOC100996395 / RFU, ING1 / Fold change vs veh, ING1 / RFU, TRMT61B / Fold change vs veh, TRMT61B / RFU, FUBP3 / Fold change vs veh, FUBP3 / RFU, TP53 / Fold change vs veh, TP53 / RFU, TNKS2 / Fold change vs veh, TNKS2 / RFU, ZFP14 / Fold change vs veh, ZFP14 / RFU, ACTR2 / Fold change vs veh, ACTR2 / RFU, PPP3R1 / Fold change vs veh, PPP3R1 / RFU, PIK3R1 / Fold change vs veh, PIK3R1 / RFU, HNRNPA1 / Fold change vs veh, HNRNPA1 / RFU, RNF170 / Fold change vs veh, RNF170 / RFU, ZNF28 / Fold change vs veh, ZNF28 / RFU, RNGTT / Fold change vs veh, RNGTT / RFU, OGT / Fold change vs veh, OGT / RFU, BRD1 / Fold change vs veh, BRD1 / RFU, MARS / Fold change vs veh, MARS / RFU, ZNF655 / Fold change vs veh, ZNF655 / RFU, FAHD1 / Fold change vs veh, FAHD1 / RFU, BDP1 / Fold change vs veh, BDP1 / RFU, LRRCC1 / Fold change vs veh, LRRCC1 / RFU, ARID1A / Fold change vs veh, ARID1A / RFU, ZNF146 / Fold change vs veh, ZNF146 / RFU, ZNF330 / Fold change vs veh, ZNF330 / RFU, GPN3 / Fold change vs veh, GPN3 / RFU, C9orf123 / Fold change vs veh, C9orf123 / RFU, N4BP2L2 / Fold change vs veh, N4BP2L2 / RFU, ARFIP1 / Fold change vs veh, ARFIP1 / RFU, FAM179B / Fold change vs veh, FAM179B / RFU, BCL10 / Fold change vs veh, BCL10 / RFU, UHRF1BP1L / Fold change vs veh, UHRF1BP1L / RFU, BET1 / Fold change vs veh, BET1 / RFU, CNOT2 / Fold change vs veh, CNOT2 / RFU, ZNF268 / Fold change vs veh, ZNF268 / Fold change vs veh, ZNF507 / RFU, DGCR2 / Fold change vs veh, DGCR2 / RFU, WDSUB1 / Fold change vs veh, WDSUB1 / Fold change vs veh, HSP90B1 /// MIR3652 / RFU, ADSS / Fold change vs veh, ADSS / RFU, GK / Fold change vs veh, GK / RFU, ZNF148 / Fold change vs veh, ZNF148 / RFU, TAF9 / Fold change vs veh, TAF9 / RFU, SLC1A5 / Fold change vs veh, SLC1A5 / RFU, SLMO2 / Fold change vs veh, SLMO2 / RFU, ABCC4 / Fold change vs veh, ABCC4 / RFU, LOC101060439 /// RAP1B / Fold change vs veh, LOC101060439 /// RAP1B / RFU, RFX7 / Fold change vs veh, RFX7 / RFU, GTPBP10 / Fold change vs veh, GTPBP10 / RFU, CNEP1R1 / Fold change vs veh, CNEP1R1 / RFU, BIVM-ERCC5 /// ERCC5 / Fold change vs veh, BIVM-ERCC5 /// ERCC5 / RFU, ILF3 / Fold change vs veh, ILF3 / RFU 11762660_at / Fold change /veh 11762660_at / RFU VCAN (11757783_s_at) / Fold change /veh VCAN (11757783_s_at) / RFU DDX43 (11728927_at) / Fold change /veh DDX43 (11728927_at) / RFU KRT8 (11758188_x_at) / Fold change /veh KRT8 (11758188_x_at) / RFU NKD1 (11759106_at) / Fold change /veh NKD1 (11759106_at) / RFU SRD5A1 (11742802_a_at) / Fold change /veh SRD5A1 (11742802_a_at) / RFU TPSAB1 /// TPSB2 (11721975_s_at) / Fold change /veh TPSAB1 /// TPSB2 (11721975_s_at) / RFU GSTM3 (11746129_a_at) / Fold change /veh GSTM3 (11746129_a_at) / RFU IL23R (11737362_x_at) / Fold change /veh IL23R (11737362_x_at) / RFU TMEM51 (11727254_a_at) / Fold change /veh TMEM51 (11727254_a_at) / RFU PIWIL2 (11732686_x_at) / Fold change /veh PIWIL2 (11732686_x_at) / RFU ORM1 (11744905_x_at) / Fold change /veh ORM1 (11744905_x_at) / RFU CCDC152 (11743942_at) / Fold change /veh CCDC152 (11743942_at) / RFU ECM1 (11717891_a_at) / Fold change /veh ECM1 (11717891_a_at) / RFU IL23R (11748794_a_at) / Fold change /veh IL23R (11748794_a_at) / RFU TNFAIP8L3 (11732012_x_at) / Fold change /veh TNFAIP8L3 (11732012_x_at) / RFU MBOAT4 (11741988_at) / Fold change /veh MBOAT4 (11741988_at) / RFU 11764193_at / Fold change /veh 11764193_at / RFU TMEM53 (11763286_at) / Fold change /veh TMEM53 (11763286_at) / RFU MAGEB2 (11727129_at) / Fold change /veh MAGEB2 (11727129_at) / RFU TMEM200A (11744735_a_at) / Fold change /veh TMEM200A (11744735_a_at) / RFU CCDC152 (11751479_a_at) / Fold change /veh CCDC152 (11751479_a_at) / RFU FAM211A (11726209_a_at) / Fold change /veh FAM211A (11726209_a_at) / RFU RGS16 (11746705_a_at) / Fold change /veh RGS16 (11746705_a_at) / RFU VCAN (11755009_s_at) / Fold change /veh VCAN (11755009_s_at) / RFU RHOB (11743442_s_at) / Fold change /veh RHOB (11743442_s_at) / RFU RGS16 (11720943_a_at) / Fold change /veh RGS16 (11720943_a_at) / RFU RGS16 (11720944_at) / Fold change /veh RGS16 (11720944_at) / RFU, VPS4B / Fold change vs veh, VPS4B / RFU, CREB1 / Fold change vs veh, CREB1 / RFU, DNAJC13 / Fold change vs veh, DNAJC13 / RFU, GNAQ / Fold change vs veh, GNAQ / RFU, CDK5R1 / Fold change vs veh, CDK5R1 / RFU, ZRANB3 / Fold change vs veh, ZRANB3 / RFU, CUL4A / Fold change vs veh, CUL4A / RFU, CCNY / Fold change vs veh, CCNY / RFU, UFL1 / Fold change vs veh, UFL1 / RFU, COG3 / Fold change vs veh, COG3 / RFU, DIAPH2 / Fold change vs veh, DIAPH2 / RFU, SKA2 / Fold change vs veh, SKA2 / RFU, AFF3 / Fold change vs veh, AFF3 / RFU, LMF1 / Fold change vs veh, LMF1 / RFU, IPO11 / Fold change vs veh, IPO11 / RFU, DFFB / Fold change vs veh, DFFB / RFU, FOXP1 / Fold change vs veh, FOXP1 / RFU, CARD8 / Fold change vs veh, CARD8 / RFU, STRN3 / Fold change vs veh, STRN3 / RFU, ADK / Fold change vs veh, ADK / RFU, RASSF2 / Fold change vs veh, RASSF2 / RFU, WIPF1 / Fold change vs veh, WIPF1 / RFU, LARP1B / Fold change vs veh, LARP1B / RFU, RASA1 / Fold change vs veh, RASA1 / RFU, RB1 / Fold change vs veh, RB1 / RFU, PPFIA1 / Fold change vs veh, PPFIA1 / RFU, MAT2A / Fold change vs veh, MAT2A / RFU, CCT5 / Fold change vs veh, CCT5 / RFU, WDR92 / Fold change vs veh, WDR92 / RFU, CUX1 / Fold change vs veh, CUX1 / RFU, TTC7A / Fold change vs veh, TTC7A / RFU, TMEM135 / Fold change vs veh, TMEM135 / RFU, DEPTOR / Fold change vs veh, DEPTOR / RFU, CPM / Fold change vs veh, CPM / RFU, DNAJB6 / Fold change vs veh, DNAJB6 / RFU, CACNA2D3 / Fold change vs veh, CACNA2D3 / RFU, DTX4 / Fold change vs veh, DTX4 / RFU, TFCP2 / Fold change vs veh, TFCP2 / RFU, GMCL1 /// GMCL1P1 / Fold change vs veh, GMCL1 /// GMCL1P1 / RFU, AEBP2 / Fold change vs veh, AEBP2 / RFU, SNHG1 /// SNORD22 /// SNORD25 /// SNORD26 /// SNORD27 /// SNORD28 /// SNORD29 /// SNORD31 / Fold change vs veh, SNHG1 /// SNORD22 /// SNORD25 /// SNORD26 /// SNORD27 /// SNORD28 /// SNORD29 /// SNORD31 / Fold change (Aza/veh), C12orf56 (ProbeSet 11735607_a_at) / Fold change (ACY-1035/veh), C12orf56 (ProbeSet 11735607_a_at) / Fold change (Aza/veh), FGFR1OP (ProbeSet 11751329_s_at) / Fold change (ACY-1035/veh), FGFR1OP (ProbeSet 11751329_s_at) / Fold change (Aza/veh), VPS36 (ProbeSet 11739960_a_at) / Fold change (ACY-1035/veh), VPS36 (ProbeSet 11739960_a_at) / RFU SYPL1 (11715823_x_at) / Fold change /veh SYPL1 (11715823_x_at) / RFU IGFBP7 (11715501_s_at) / Fold change /veh IGFBP7 (11715501_s_at) / RFU REEP3 (11722064_at) / Fold change /veh REEP3 (11722064_at) / RFU IGLL1 (11728026_x_at) / Fold change /veh IGLL1 (11728026_x_at): dose or concentration left out as unconfirmed. The note with it: ProbeSet 11730252_s_at; LIST B.

With `Nc1ncn([C@@H]2O[C@H](CO)[C@@H](O)[C@H]2O)c(=O)n1` [azacitidine], the “RFU, AHCTF1” value stood at 220.95 RFU.
